Results taken from US20220331257A1, “LIQUID PHARMACEUTICAL COMPOSITIONS WITH STABLE DRUG RELEASE PROFILES” (Avadel Legacy Pharmaceuticals, LLC, priority 2019, published 2022).
One block for each compound: values may come before it.

Legend:
[1] = Osmolality of osmotic agent solutions (external phase); assay type: physicochemical; details: for Osmolality (extrapolated): third order polynomial fit
Source text: In these attempts, the osmolality ratio of the composition was greater than 1 (measured at ambient temperature using a vapor pressure osmometer (model Vapro 5600 XR from ELITech/WESCOR) with a measurement range from 20 mosmol/kg to 3500 mosmol/kg).
To determine the osmolality of the external phase of the compositions, it was assumed that only the osmotic agent contributed to the external phase's osmolality because, in addition to the osmotic agent, the external phase contained only minimal amounts of the suspending agent (e.g., 0.1-0.2 wt %). Measurements were obtained experimentally up to 40 wt % sorbitol and up to 50 wt % maltitol and then extrapolated to 60 wt % using a fit with a third order polynomial form (Table 2). Measurements were also obtained for a commercially available sorbitol solution, NEOSORB® 70/70B, containing 70% of dry substance and a minimum of 74% sorbitol in the dry substance (Table 2).

[2] = Solubility of drugs in water (saturated solutions); details: saturated solution in water
[3] = Saturation of the continuous phase by the drug; assay type: physicochemical; details: continuous phase 60 wt % maltitol, 0.2 wt % xanthan gum, about pH 7.2
Procedure: A “continuous phase” or “liquid phase” as used herein, refers to the fluid or liquid phase of the suspension in which the particles are dispersed. The continuous phase may not be saturated by the drug. “Not saturated by the drug” as used herein refers to the amount of drug in the continuous phase being less than the amount at which the continuous phase is saturated with the drug at the temperature at which the saturation is measured. The temperature at which saturation is measured corresponds to the temperature at which stability is performed. In an example, saturation is measured at 30° C.

[4] = Osmolality of saturated solutions of drugs in water (vapor pressure osmometer); assay type: physicochemical

Solubility ([2]; 25° C.): 2.5 mg/g
Structure (SMILES): CC(=O)Oc1ccccc1C(=O)O [Aspirin, aspirin]

Osmolality (experimental) ([1]; dry matter content 10% (wt %)): 333 mOsm/kg sol
Osmolality (extrapolated) ([1]; dry matter content 10% (wt %)): 330 mOsm/kg
Osmolality (experimental) ([1]; dry matter content 20% (wt %)): 779 mOsm/kg sol
Osmolality (extrapolated) ([1]; dry matter content 20% (wt %)): 791 mOsm/kg
Osmolality (experimental) ([1]; dry matter content 30% (wt %)): 1340 mOsm/kg sol
Osmolality (extrapolated) ([1]; dry matter content 30% (wt %)): 1322 mOsm/kg
Osmolality (experimental) ([1]; dry matter content 40% (wt %)): 2265 mOsm/kg sol
Osmolality (extrapolated) ([1]; dry matter content 40% (wt %)): 2277 mOsm/kg
Osmolality (experimental) ([1]; dry matter content 50% (wt %)): 3882 mOsm/kg sol
Osmolality (extrapolated) ([1]; dry matter content 50% (wt %)): 3879 mOsm/kg
Osmolality (extrapolated) ([1]; dry matter content 60% (wt %)): 6538 mOsm/kg
Structure (SMILES): OC[C@@H](O)[C@@H](O[C@H]1O[C@H](CO)[C@@H](O)[C@H](O)[C@H]1O)[C@H](O)[C@@H](O)CO [maltitol]

saturation of the continuous phase by the drug [3]: 15.3 mg/g
Structure (SMILES): COc1ccccc1OCC(O)CO (centres unmarked) [guaifenesin]

Second part, the compound before the results:

Structure (SMILES): OC[C@@H](O)[C@@H](O)[C@H](O)[C@@H](O)CO [Sorbitol, sorbitol]
Osmolality (experimental) ([1]; dry matter content 5% (wt %)): 276 mOsm/kg sol
Osmolality (extrapolated) ([1]; dry matter content 5% (wt %)): 269 mOsm/kg
Osmolality (experimental) ([1]; dry matter content 10% (wt %)): 599 mOsm/kg sol
Osmolality (extrapolated) ([1]; dry matter content 10% (wt %)): 610 mOsm/kg
Osmolality (experimental) ([1]; dry matter content 15% (wt %)): 954 mOsm/kg sol
Osmolality (extrapolated) ([1]; dry matter content 15% (wt %)): 960 mOsm/kg
Osmolality (experimental) ([1]; dry matter content 20% (wt %)): 1376 mOsm/kg sol
Osmolality (extrapolated) ([1]; dry matter content 20% (wt %)): 1364 mOsm/kg
Osmolality (experimental) ([1]; dry matter content 25% (wt %)): 1844 mOsm/kg sol
Osmolality (extrapolated) ([1]; dry matter content 25% (wt %)): 1830 mOsm/kg
Osmolality (experimental) ([1]; dry matter content 30% (wt %)): 2407 mOsm/kg sol
Osmolality (extrapolated) ([1]; dry matter content 30% (wt %)): 2426 mOsm/kg
Osmolality (experimental) ([1]; dry matter content 40% (wt %)): 4125 mOsm/kg sol
Osmolality (extrapolated) ([1]; dry matter content 40% (wt %)): 4122 mOsm/kg
Osmolality (extrapolated) ([1]; dry matter content 50% (wt %)): 6816 mOsm/kg
Osmolality (extrapolated) ([1]; dry matter content 60% (wt %)): 10777 mOsm/kg

Structure (SMILES): Cc1ccc(=O)n(-c2ccccc2)c1 [Pirfenidone, pirfenidone]
Solubility ([2]; 25° C.): 18 mg/g
Osmolality of saturated solution ([4]; 25° C.): 84 mosmol/kg

Structure (SMILES): CC(=O)Nc1ccc(O)cc1 [Acetaminophen, acetaminophen]
Solubility ([2]; 25° C.): 14 mg/g
Solubility ([2]; 40° C.): 20 mg/g
Osmolality of saturated solution ([4]; 25° C.): 74 mosmol/kg
Osmolality of saturated solution ([4]; 40° C.): 112 mosmol/kg
